Values after ≈ are worked out from the molar mass of the structure shown. Values joined by “and” are separate entries in the source; they are usually repeats but may differ in a detail not shown here. Equal entries are not always repeated.
How the values were obtained:
[1] = system: Mycobacterium tuberculosis; assay: (§1) Antimycobacterial activity against isoniazid, rifampicin, ethambutol and pyrazinamide sensitive Mycobacterium tuberculosis H37Rv ATCC 25618 assessed as inhibition of bacterial growth incubated for 7 days by resazurin dye based colorimetric method analysis; format: functional; conditions: H37Rv ATCC 25618, 168 h, time 7 day
[2] = system: Mycobacterium tuberculosis; assay: as §1, with “Potency index, ratio of ethambutol MIC to test compound MIC for antimycobacterial” for “Antimycobacterial”; format: functional; conditions: time 7 day
[3] = Cytotoxicity against African green monkey Vero cells assessed as reduction in cell population incubated for 48 hrs by MTT assay; format: toxicity, cell-based; conditions: chlorocebus sabaeus
[4] = Cytotoxicity against mouse J774.A1 cells assessed as reduction in cell population incubated for 48 hrs by MTT assay; format: toxicity, cell-based
[5] = system: Mycolicibacterium smegmatis; assay: Antimycobacterial activity against Mycobacterium smegmatis ATCC607 incubated for 24 hrs by resazurin dye based broth microdilution method; format: functional
Staphylococcus aureus = assay: Antibacterial activity against Staphylococcus aureus ATCC 25923 incubated for 18 hrs by resazurin dye based broth microdilution method; format: functional
Klebsiella pneumoniae = assay: Antibacterial activity against Klebsiella pneumoniae ATCC 13883 incubated for 18 hrs by resazurin dye based broth microdilution method; format: functional
[6] = system: Mycobacterium tuberculosis; assay: Antimycobacterial activity against Mycobacterium tuberculosis H37Rv ATCC 25618 assessed as fractional inhibitory concentration incubated for 7 days in presence of 2-aminoheptadecan-1-ol by resazurin dye based two-dimensional micro dilution checkerboard assay; format: functional; conditions: time 7 day
[7] = system: Mycobacterium tuberculosis; assay: Antimycobacterial activity against Mycobacterium tuberculosis H37Rv ATCC 25618 incubated for 7 days by resazurin dye based two-dimensional micro dilution checkerboard assay in presence of 1-(benzyloxy)heptadecan-2-amine; format: functional; conditions: time 7 day
[8] = system: Mycobacterium tuberculosis; assay: Antimycobacterial activity against Mycobacterium tuberculosis H37Rv ATCC 25618 incubated for 7 days by resazurin dye based two-dimensional micro dilution checkerboard assay in presence of 1-((3,4,5-trimethoxybenzyl)oxy)heptadecan-2-amine; format: functional; conditions: time 7 day
[9] = Cytotoxicity against human HepG2 cells assessed as reduction in cell population incubated for 48 hrs by MTT assay; format: toxicity, cell-based

Structure (SMILES) | MIC [1] | Ratio [2] | CC50 at 48 h [3] | CC50 at 48 h [4] | MIC [5] | MIC (Staphylococcus aureus) | MIC (Klebsiella pneumoniae) | FIC [6] | FIC [7] | FIC [8] | CC50 at 48 h [9]
CCCCCCCCCCCCCCCCCC(COCc1ccccc1)NCCCCCC (stereo unspecified) | 64 µM (≈ 30.3 µg/mL) | 6 | 120 µM | 118 µM | > 512 µM | > 512 µM | > 512 µM |  |  |  | 
CCCCCCCCCCCCCCCCCC(CO)N(CC)CC (stereo unspecified) | > 64 µM | <5.6 | 85.5 µM | 49.5 µM | > 512 µM | > 512 µM | > 512 µM |  |  |  | 
CCCCCCCCCCCCCCCC(CNCC(=O)OCC)NC(=O)OC(C)(C)C (stereo unspecified) | 32 µM (≈ 14.6 µg/mL) | 11 | 39 µM | 27.9 µM |  |  |  |  |  |  | 
NCC[C@H](O)C(=O)N[C@@H]1C[C@H](N)[C@@H](O[C@H]2O[C@H](CN)[C@@H](O)[C@H](O)[C@H]2O)[C@H](O)[C@H]1O[C@H]1O[C@H](CO)[C@@H](O)[C@H](N)[C@H]1O [AMIKACIN] | 0.1 µM and 0.08 µg/mL |  |  |  | 1 µM (≈ 0.586 µg/mL) |  |  | 0.063 | 0.25 | 0.5 | 
CCCCc1ccc(CCCCCCCC(N)CO)cc1 (stereo unspecified) | 4 µM (≈ 1.17 µg/mL) | 90 | 21.2 µM | 10.6 µM |  |  |  |  |  |  | 25.4 µM
CCCCCCCCCCCCCCCC(COCc1ccccc1)NCCCCCC (stereo unspecified) | 64 µM (≈ 28.5 µg/mL) | 6 | 54 µM | 54.6 µM |  |  |  |  |  |  | 
CCCCCCCCCCCCCCCC(CO)N(CC)CC (stereo unspecified) | 4 µM (≈ 1.31 µg/mL) | 90 | 25.1 µM | 23.3 µM |  |  |  |  |  |  | 
CCCCCCCCCCCCCCCCCCCC(COCc1ccccc1)NCC (stereo unspecified) | 16 µM (≈ 7.13 µg/mL) | 23 | 67.8 µM | 52.3 µM | 128 µM (≈ 57.1 µg/mL) | > 512 µM | > 512 µM |  |  |  | 95.1 µM
CCCCCCCCCCCCCCCCCC(CO)NCC (stereo unspecified) | 16 µM (≈ 5.24 µg/mL) | 23 | 23.6 µM | 135 µM | 64 µM (≈ 21 µg/mL) | 32 µM (≈ 10.5 µg/mL) | 512 µM (≈ 168 µg/mL) |  |  |  | 192 µM
CCCCCCCCCCCCCCCC(CNCCCC)NC(=O)OC(C)(C)C (stereo unspecified) | 8 µM (≈ 3.41 µg/mL) | 45 | 20.3 µM | 21.2 µM | 32 µM (≈ 13.7 µg/mL) | 16 µM (≈ 6.83 µg/mL) | > 512 µM |  |  |  | 136 µM
CC(C)(O/N=C(\C(=O)N[C@@H]1C(=O)N2C(C(=O)[O-])=C(C[n+]3ccccc3)CS[C@H]12)c1csc(N)n1)C(=O)O [CEFTAZIDIME] |  |  |  |  |  |  | 0.5 µM (≈ 0.273 µg/mL) |  |  |  | 
C[C@H]1COc2c(N3CCN(C)CC3)c(F)cc3c(=O)c(C(=O)O)cn1c23 [LEVOFLOXACIN ANHYDROUS] | 0.35 µM and 0.13 µg/mL |  |  |  |  |  |  | 0.031 | 0.5 | 0.5 | 
CCCCCCCCCCCC(CNCC)NC(=O)OC(C)(C)C (stereo unspecified) | 64 µM (≈ 21.9 µg/mL) | 6 | 32.3 µM | 20.9 µM |  |  |  |  |  |  | 
CCCCCCCCCCCCCCCCCCCC(N)COCc1ccccc1 (stereo unspecified) | 32 µM (≈ 13.4 µg/mL) | 11 | 126 µM | 23 µM | 256 µM (≈ 107 µg/mL) | > 512 µM | > 512 µM |  |  |  | 
CCCCc1ccc(CCCCCCCCCC(N)CO)cc1 (stereo unspecified) | 8 µM (≈ 2.56 µg/mL) | 45 | 25.4 µM | 11.7 µM |  |  |  |  |  |  | 45.6 µM
Cc1onc(-c2ccccc2)c1C(=O)N[C@@H]1C(=O)N2[C@@H]1SC(C)(C)[C@@H]2C(=O)O [OXACILLIN] |  |  |  |  |  | 0.25 µM (≈ 0.1 µg/mL) |  |  |  |  | 
CCCCCCCCCCCCCCCCCCCC(CNCC)NC(=O)OC(C)(C)C (stereo unspecified) | 4 µM (≈ 1.82 µg/mL) | 90 | 33.7 µM | 4.7 µM | 16 µM (≈ 7.28 µg/mL) | 256 µM (≈ 116 µg/mL) | > 512 µM |  |  |  | 158 µM
CCCCCCCCCCCCCCCC(CO)NCCCCCCCCCC (stereo unspecified) | 64 µM (≈ 26.4 µg/mL) | 6 | 104 µM | 55.3 µM | 128 µM (≈ 52.7 µg/mL) | 512 µM (≈ 211 µg/mL) | > 512 µM |  |  |  | 
CCCCCCCCCCCCCCCC(CNCCCCCC)NC(=O)OC(C)(C)C (stereo unspecified) | 8 µM (≈ 3.64 µg/mL) | 45 | 22.9 µM | 20.8 µM | 128 µM (≈ 58.2 µg/mL) | 256 µM (≈ 116 µg/mL) | > 512 µM |  |  |  | 86.8 µM
CCCCCCCCCCCCCCCCCC(N)COCc1ccccc1 (stereo unspecified) | 64 µM (≈ 24.9 µg/mL) | 6 | 138 µM | 93.3 µM | > 512 µM | > 512 µM | > 512 µM |  |  |  | 
CCCCc1ccc(CCCCCCCCCC(CO)NC(=O)OC(C)(C)C)cc1 (stereo unspecified) | 32 µM (≈ 13.4 µg/mL) | 11 | 31 µM | 15.8 µM |  |  |  |  |  |  | 
CCCCCCCCCCCC(CO)NCC (stereo unspecified) | > 64 µM | >5.6 | 37.3 µM | 10.5 µM |  |  |  |  |  |  | 

Structure (SMILES) | MIC [1] | Ratio [2] | CC50 at 48 h [3] | CC50 at 48 h [4] | MIC [5] | MIC (Staphylococcus aureus) | MIC (Klebsiella pneumoniae) | FIC [6] | FIC [7] | FIC [8] | CC50 at 48 h [9]
CCCCc1ccc(CCCCCCCC(CO)NC(=O)OC(C)(C)C)cc1 (stereo unspecified) | 32 µM (≈ 12.5 µg/mL) | 11 | 28.3 µM | 12.9 µM |  |  |  |  |  |  | 
CCCCCCCCCCCCCCCC(CN)NC(=O)OC(C)(C)C (stereo unspecified) | 17.6 µM (≈ 6.52 µg/mL) | 20 | 21.9 µM | 5.18 µM |  |  |  |  |  |  | 
CCCCCCCCCCCCCCCC(CO)N(CCCC)CCCC (stereo unspecified) | 8 µM (≈ 3.07 µg/mL) | 45 | 47.2 µM | 22.4 µM | > 512 µM |  |  |  |  |  | 82.5 µM
CCCCCCCCCCCCCCCC(CNCC)NC(=O)OC(C)(C)C (stereo unspecified) | 16 µM (≈ 6.38 µg/mL) | 23 | 17.7 µM | 19.8 µM | 32 µM (≈ 12.8 µg/mL) | ≤ 4 µM | 512 µM (≈ 204 µg/mL) |  |  |  | 107 µM
CCCCCCCCCCCCCCCC(N)CNCC (stereo unspecified) | 32 µM (≈ 9.55 µg/mL) | 11 | 40.1 µM | 25.6 µM |  |  |  |  |  |  | 
CCCCCCCCCCCCCCCC(CO)NCC (stereo unspecified) | 16 µM (≈ 4.79 µg/mL) | 23 | 27.7 µM | 22.8 µM |  |  |  |  |  |  | 
CCCCCCCCCCCCCCCCCCCC(CN)NC(=O)OC(C)(C)C (stereo unspecified) | 32 µM (≈ 13.7 µg/mL) | 11 | 51.4 µM | 36 µM |  |  |  |  |  |  | 
CCCCCCCCCCCCCCCCCCCC(CO)N(CC)CC (stereo unspecified) | > 64 µM | <5.6 | 117 µM | 102 µM | > 512 µM | > 512 µM | > 512 µM |  |  |  | 
CCCCCCCCCCCC(N)CO (stereo unspecified) | 64 µM (≈ 13.8 µg/mL) | 6 | 40.8 µM | 2.35 µM |  |  |  |  |  |  | 
CCCCCCCCCCCCCCCC(COCc1ccccc1)NCC (stereo unspecified) | 16 µM (≈ 6.23 µg/mL) | 23 | 26 µM | 21.6 µM | 32 µM (≈ 12.5 µg/mL) | 16 µM (≈ 6.23 µg/mL) | > 512 µM |  |  |  | 237 µM
CCCCCCCCCCCCCCCC(CO)NCCCCCC (stereo unspecified) | 64 µM (≈ 22.8 µg/mL) | 6 | 113 µM | 23.8 µM | 256 µM (≈ 91 µg/mL) | 128 µM (≈ 45.5 µg/mL) | > 512 µM |  |  |  | 
CCCCCCCCCCCCCCCC(CN=[N+]=[N-])NC(=O)OC(C)(C)C (stereo unspecified) | > 64 µM | <5.6 | 63.8 µM | 104 µM | > 512 µM | > 512 µM | > 512 µM |  |  |  | 
CCCCCCCCCCCCCCCCCC(CO)NCCCC (stereo unspecified) | 32 µM (≈ 11.4 µg/mL) | 11 | 148 µM | 31.1 µM | 512 µM (≈ 182 µg/mL) | 512 µM (≈ 182 µg/mL) | > 512 µM |  |  |  | 
CCCCCCCCCCCC(CO)N(CC)CC (stereo unspecified) | 64 µM (≈ 17.4 µg/mL) | 6 | 36.2 µM | 17.6 µM |  |  |  |  |  |  | 
CCCCCCCCCCCCCCCC(N)CN (stereo unspecified) | > 64 µM | <5.6 | 192 µM | 217 µM | 512 µM (≈ 138 µg/mL) | > 512 µM | > 512 µM |  |  |  | 
CCCCCCCCCCCCCCCC(CO)NCCCC (stereo unspecified) | 64 µM (≈ 21 µg/mL) | 6 | 73.4 µM | 23.7 µM |  |  |  |  |  |  | 
CCCCc1ccc(CCCCCC(N)CO)cc1 (stereo unspecified) | 64 µM (≈ 16.9 µg/mL) | 6 | 27.8 µM | 10.7 µM |  |  |  |  |  |  | 
CCCCc1ccc(CCCCCC(CO)NC(=O)OC(C)(C)C)cc1 (stereo unspecified) | 64 µM (≈ 23.3 µg/mL) | 6 | 51.5 µM | 14.2 µM |  |  |  |  |  |  | 
CCCCCCCCCCCCCCCCCC(CN)NC(=O)OC(C)(C)C (stereo unspecified) | 16 µM (≈ 6.38 µg/mL) | 23 | 17.7 µM | 30.5 µM | 8 µM (≈ 3.19 µg/mL) | 16 µM (≈ 6.38 µg/mL) | > 512 µM |  |  |  | 115 µM
CCCCCCCCCCCCCCCCCC(N)CO (stereo unspecified) | 8 µM (≈ 2.4 µg/mL) | 45 | 53.2 µM | 9.65 µM | 256 µM (≈ 76.7 µg/mL) | 256 µM (≈ 76.7 µg/mL) | > 512 µM |  |  |  | 200 µM
NNC(=O)c1ccncc1 [ISONIAZID] | 0.91 µM and 0.13 µg/mL |  |  |  |  |  |  | 0.5 | 0.5 | 0.5 | 
CCCCCCCCCCCC(CO)NCCCC (stereo unspecified) | 32 µM (≈ 8.69 µg/mL) | 11 | 26 µM | 21.4 µM |  |  |  |  |  |  | 
